Experimental data published in patent publication US20140271926A1, “METHODS OF USE OF GLUTAMINE SYNTHETASE INHIBITORS” (CALIFORNIA INSTITUTE OF TECHNOLOGY, priority 2013, published 2014).

What was measured:
FlagCRBN [1] = biological target: T1, FlagCRBN (Homo sapiens, UniProt Q96SW2); assay: FlagCRBN immunoprecipitation from stable HEK293T cells, immunoblot for CRL4CRBN subunits and GS; format: cell-based; settings: FIG. 2
T1 construct: expressed in transfected cells
Description: To confirm the results of the quantitative mass spectrometry, ^FlagCRBN was immunoprecipitated from the stable HEK293T cell line and immunoblotted for CRL4^CRBN subunits and GS. As expected, thalidomide enhanced recovery of GS but had no effect on binding of DDB1 or CUL4A (FIG. 2). In order to confirm this finding, endogenous proteins expressed in cells were analyzed that are responsive to the therapeutic effects of IMiDs. For this purpose, endogenous CRBN as immunoprecipitated from MM.1S multiple myeloma cells.
Immunoprecipitation. Cells were lysed in immunoprecipitation buffer (10 mM Tris [pH 7.5], 150 mM NaCl, 1% Triton X-100) containing a protease inhibitor cocktail, and immunoprecipitated with the indicated antibodies, such as anti-CRBN antibody for 2-4 hours at 4° C., followed by incubation with protein G sepharose 4 Fast Flow (GE Healthcare) for 1 hour at 4° C. Immunoprecipitated proteins were resolved by SDS/PAGE and analyzed by immunoblotting with the indicated antibodies.

FlagCRBN [2] = biological target: T1, FlagCRBN; assay: SILAC quantitative mass spectrometry of FlagCRBN immunoprecipitates, thalidomide vs DMSO; format: cell-based; settings: 50 μM thalidomide 4 hours vs DMSO
Description: To identify IMiD-modulated substrates of CRBN, a human embryonic kidney (HEK) 293T cell line was generated that stably expresses CRBN with a Flag tag appended to its amino terminus (^FlagCRBN). ^FlagCRBN cells were grown in medium formulated with isotopically light lysine and arginine (light medium) or in medium formulated with isotopically heavy lysine and arginine (heavy medium). Cells growing in heavy medium were treated with 50 μM thalidomide for 4 hours, whereas cells growing in light medium were treated with DMSO. ^FlagCRBN immunoprecipitates were prepared in parallel, mixed, and analyzed by quantitative mass spectrometry. […] Essentially identical results were obtained in a label swap experiment. […] (Lopez-Girona et al., 2012, supra and Zhu et al. 2011 supra.)
Preparation of ^FlagCRBN for mass spectrometry (MS). SILAC-labeled cultures of the stable cell lines were grown as described Lee et al., 2011, Molecular & Cellular Proteomics, 10: M110 006460,the entire contents of which are herein incorporated by reference. Briefly, HEK293T cells, stably expressing ^FlagCRBN, were cultured in medium formulated with isotopically light lysine and arginine (‘light’ medium) or in medium formulated with isotopically heavy lysine and arginine (‘heavy’ medium). The cells growing in ‘heavy’ medium were treated with thalidomide (a final concentration of 50 μM) for 4 hours, while the cells growing in ‘light’ medium were treated with DMSO. SILAC experiments were repeated after swapping the SILAC labels in which the cells cultured in ‘light’ and ‘heavy’ medium were treated with thalidomide and DMSO, respectively. The ^FlagCRBN immunoprecipitates were prepared, mixed, and analyzed by quantitative mass spectrometry.
MS data analysis. Thermo raw files were processed and searched with MaxQuant (v. 1.4.1.2), as described in Cox et al., 2008, Nat. Biotechnol. 26:1367; and Cox et al., 2011, J. of Proteome Research, 10:1794, the entire contents of both of which are herein incorporated by reference. Trypsin was specified as the digestion enzyme with up to two missed cleavages. Protein N-terminal acetylation (+42.0106) and methionine oxidation (+15.9949) were specified as variable modifications. Carbamidomethylation of cysteine (+57.0215) was specified as a fixed modification. Arg6 ([…]) and Lys8 (+8.0142) were specified as the SILAC labels. Requantification and match between runs were enabled. Precursor ion tolerance was 7 ppm and fragment ion tolerance was 0.5 Da. All human Uniprot entries were searched (148298 sequences, downloaded on 05Dec12) along with a contaminant database containing proteins such as keratin and trypsin (247 sequences). (Apweiler et al., 2013, Nucleic Acids Research, 41: D43, the entire contents of which are herein incorporated by reference.) Additionally, to determine the false discovery rate, a decoy database was constructed by reversing the target database. While no minimum score was specified, the protein and peptide level false discovery rates were fixed at 1% and we required that all proteins reported were identified in both biological replicates by at least two peptides.
Proteins were quantified by first calculating the median of all peptide ratios within each biological replicate and then calculating the mean of the two biological replicate ratios. Only peptides uniquely assignable to the protein group were used for quantification. […] Individual ratio measurement error was estimated using pooled variance and overall ratio standard error was calculated using bootstrap analysis. […] Q-values were calculated from the p-values using the Storey method for calculating false discovery rates as described in Storey et al., 2002, J. Roy Stat. Soc. B., 64:479, the entire contents of which is herein incorporated by reference. A q-value of 0.05 was used as a threshold for significance.

T1 sequence (Q96SW2 whole entry): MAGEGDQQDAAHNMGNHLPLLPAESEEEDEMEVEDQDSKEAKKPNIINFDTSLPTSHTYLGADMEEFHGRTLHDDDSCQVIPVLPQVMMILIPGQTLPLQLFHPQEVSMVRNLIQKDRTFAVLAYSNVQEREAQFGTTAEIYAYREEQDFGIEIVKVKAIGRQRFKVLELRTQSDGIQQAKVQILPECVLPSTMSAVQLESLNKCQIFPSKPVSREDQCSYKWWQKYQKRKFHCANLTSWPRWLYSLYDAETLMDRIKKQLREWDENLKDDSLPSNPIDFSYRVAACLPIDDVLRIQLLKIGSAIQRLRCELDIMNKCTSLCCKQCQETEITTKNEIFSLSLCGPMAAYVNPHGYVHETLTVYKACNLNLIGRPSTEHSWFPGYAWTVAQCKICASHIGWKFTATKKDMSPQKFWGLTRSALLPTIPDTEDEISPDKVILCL

## O=C1CCC(N2C(=O)c3ccccc3C2=O)C(=O)N1 (stereo not shown) [thalidomide, Thalidomide]
FlagCRBN [1]
  binding of DDB1 or CUL4A to FlagCRBN: no effect
  recovery of GS with FlagCRBN: enhanced
FlagCRBN [2]; FIG. 1
  recovery of FlagCRBN, subunits of CRL4 (CUL4, DDB1, RBX1) and subunits of CSN: recovered in equal amounts
  recovery of glutamine synthetase (GS) in FlagCRBN immunoprecipitates: recovered in greater amounts
FlagCRBN [2]; protein ATP5A1
  +/−Thalidomide Ratio: 0.7541
FlagCRBN [2]; protein ATP5B
  +/−Thalidomide Ratio: 0.6236
FlagCRBN [2]; protein BAG2
  +/−Thalidomide Ratio: 0.6303
FlagCRBN [2]; protein BOLA2
  +/−Thalidomide Ratio: 0.5989
FlagCRBN [2]; protein C11orf84
  +/−Thalidomide Ratio: 0.7032
FlagCRBN [2]; protein C12orf23
  +/−Thalidomide Ratio: 0.6718
FlagCRBN [2]; protein C22orf28
  +/−Thalidomide Ratio: 0.7109
FlagCRBN [2]; protein CCT5
  +/−Thalidomide Ratio: 0.8584
FlagCRBN [2]; protein CCT6A
  +/−Thalidomide Ratio: 0.8483
FlagCRBN [2]; protein CCT8
  +/−Thalidomide Ratio: 0.8368
FlagCRBN [2]; protein CLNS1A
  +/−Thalidomide Ratio: 0.627
FlagCRBN [2]; protein CMBL
  +/−Thalidomide Ratio: 0.7463
FlagCRBN [2]; protein COMT
  +/−Thalidomide Ratio: 0.5482
FlagCRBN [2]; protein DDX5, DKFZp686J01190
  +/−Thalidomide Ratio: 0.6321
FlagCRBN [2]; protein DKFZp686K23100, MATR3, DKFZp686K0542
  +/−Thalidomide Ratio: 0.526
FlagCRBN [2]; protein FUS
  +/−Thalidomide Ratio: 0.5807
FlagCRBN [2]; protein GLNS (glutamine synthetase)
  +/−Thalidomide Ratio: 2.508
FlagCRBN [2]; protein GLUD1, GLUD2
  +/−Thalidomide Ratio: 0.7935
FlagCRBN [2]; protein HNRNPA2B1
  +/−Thalidomide Ratio: 0.4533
FlagCRBN [2]; protein HNRNPAB
  +/−Thalidomide Ratio: 0.569
FlagCRBN [2]; protein HNRNPC, hCG_1641229, HNRPCL1, HNRNPCL1, LOC440563, LOC649330
  +/−Thalidomide Ratio: 0.4229
FlagCRBN [2]; protein HNRNPK, HNRPK
  +/−Thalidomide Ratio: 0.5905
FlagCRBN [2]; protein HNRNPL
  +/−Thalidomide Ratio: 0.44
FlagCRBN [2]; protein HNRNPM, ORF, HNRPM
  +/−Thalidomide Ratio: 0.6977
FlagCRBN [2]; protein HNRNPU, HNRPU
  +/−Thalidomide Ratio: 0.7137
FlagCRBN [2]; protein HSP90AA1
  +/−Thalidomide Ratio: 0.7454
FlagCRBN [2]; protein HSP90AB1
  +/−Thalidomide Ratio: 0.79
FlagCRBN [2]; protein IMPDH2
  +/−Thalidomide Ratio: 0.8138
FlagCRBN [2]; protein IVNS1ABP
  +/−Thalidomide Ratio: 0.6131
FlagCRBN [2]; protein KIF11
  +/−Thalidomide Ratio: 0.6737
FlagCRBN [2]; protein LUC7L2
  +/−Thalidomide Ratio: 0.7578
FlagCRBN [2]; protein PDIA6
  +/−Thalidomide Ratio: 0.8515
FlagCRBN [2]; protein PIH1D1
  +/−Thalidomide Ratio: 0.5153
FlagCRBN [2]; protein PRPS1
  +/−Thalidomide Ratio: 0.7264
FlagCRBN [2]; protein PRPS2
  +/−Thalidomide Ratio: 0.6445
FlagCRBN [2]; protein PUF60
  +/−Thalidomide Ratio: 0.5471
FlagCRBN [2]; protein RBM39, DKFZp781C0423, DKFZp686A11192, DKFZp781I1140, DKFZp686C17209
  +/−Thalidomide Ratio: 0.6182
FlagCRBN [2]; protein RBMX, RBMXL1
  +/−Thalidomide Ratio: 0.5004
FlagCRBN [2]; protein RIOK1
  +/−Thalidomide Ratio: 0.6187
FlagCRBN [2]; protein RPL26, KRBA2, RPL26L1
  +/−Thalidomide Ratio: 0.698
FlagCRBN [2]; protein RPL27
  +/−Thalidomide Ratio: 0.7987
FlagCRBN [2]; protein RPL35, LOC154880
  +/−Thalidomide Ratio: 0.6839
FlagCRBN [2]; protein RPS3A
  +/−Thalidomide Ratio: 0.7607
FlagCRBN [2]; protein RPS8
  +/−Thalidomide Ratio: 0.8186
FlagCRBN [2]; protein RPS25
  +/−Thalidomide Ratio: 0.7348
FlagCRBN [2]; protein RPSA, RPSAP58, LAMR1P15
  +/−Thalidomide Ratio: 0.8005
FlagCRBN [2]; protein RUVBL1
  +/−Thalidomide Ratio: 0.7099
FlagCRBN [2]; protein RUVBL2
  +/−Thalidomide Ratio: 0.6927
FlagCRBN [2]; protein SF3A3
  +/−Thalidomide Ratio: 0.5959
FlagCRBN [2]; protein SFRS11, SRSF11
  +/−Thalidomide Ratio: 0.573
FlagCRBN [2]; protein SNRPD1
  +/−Thalidomide Ratio: 0.6168
FlagCRBN [2]; protein SNRPD3
  +/−Thalidomide Ratio: 0.6583
FlagCRBN [2]; protein SNRPF
  +/−Thalidomide Ratio: 0.6071
FlagCRBN [2]; protein SNRPN, SNRPB
  +/−Thalidomide Ratio: 0.6605
FlagCRBN [2]; protein SPIN1
  +/−Thalidomide Ratio: 0.6689
FlagCRBN [2]; protein SRSF3, SFRS3
  +/−Thalidomide Ratio: 0.651
FlagCRBN [2]; protein STK38
  +/−Thalidomide Ratio: 0.7445
FlagCRBN [2]; protein TCP1
  +/−Thalidomide Ratio: 0.8927
FlagCRBN [2]; protein TRIM21
  +/−Thalidomide Ratio: 0.7125
FlagCRBN [2]; protein TXN
  +/−Thalidomide Ratio: 0.7037
FlagCRBN [2]; protein U2AF2
  +/−Thalidomide Ratio: 0.6123
FlagCRBN [2]; protein VCP, DKFZp434K0126
  +/−Thalidomide Ratio: 0.7702
FlagCRBN [2]; protein WDR77
  +/−Thalidomide Ratio: 0.5895
